# In ChEMBL document CHEMBL1155936, “Allosteric FBPase inhibitors gain 10(5) times in potency when simultaneously binding two neighboring AMP sites” (Bioorg Med Chem Lett, 2008):
# Key:
# [1] = biological target: T1, Fructose-1,6-bisphosphatase 1 (Homo sapiens, UniProt P09467); assay: Inhibition of human liver fructose-1,6-bisphosphatase
# T1 sequence (P09467 whole entry): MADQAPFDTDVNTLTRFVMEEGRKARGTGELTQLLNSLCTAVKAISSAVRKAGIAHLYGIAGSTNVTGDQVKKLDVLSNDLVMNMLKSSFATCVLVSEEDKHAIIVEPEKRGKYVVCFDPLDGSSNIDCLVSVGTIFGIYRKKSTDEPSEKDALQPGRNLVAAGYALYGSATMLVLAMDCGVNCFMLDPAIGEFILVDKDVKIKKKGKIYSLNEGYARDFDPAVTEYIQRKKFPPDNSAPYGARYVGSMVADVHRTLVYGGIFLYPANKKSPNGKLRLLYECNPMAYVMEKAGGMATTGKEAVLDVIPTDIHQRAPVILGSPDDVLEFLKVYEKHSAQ
# [2] = biological target: T1, Fructose-1,6-bisphosphatase 1; assay: Inhibition of human liver fructose-1,6-bisphosphatase in presence of fructose-2,6-bisphosphate
# [3] = Half life in mouse at 9.68 mg/kg, po; format: ADME, organism-based; parameters: dose 9.68 mg/kg, route oral; settings: in vivo
# [4] = Dissociation constant, pKa of the compound; format: physicochemical
# [5] = Lipophilicity, Log D at pH 7.4; format: physicochemical; settings: buffer
# [6] = Bioavailability in mouse at 9.68 mg/kg, po; format: ADME, organism-based; settings: in vivo
# [7] = Bioavailability in mouse at 10 mg/kg, po; format: ADME, organism-based; settings: in vivo
# [8] = Half life in mouse at 10 mg/kg, po; format: ADME, organism-based; parameters: dose 10 mg/kg, route oral; settings: in vivo
IC50 [1] [µM],IC50 [2] [µM],Compound,other results
0.068,0.028,Cc1cccc(S(=O)(=O)NC(=O)NCC/C=C/CCNC(=O)NS(=O)(=O)c2cccc(C)c2)c1,
0.055,0.01,O=C(NCCSSCCNC(=O)NS(=O)(=O)c1cccc(Cl)c1)NS(=O)(=O)c1cccc(Cl)c1,
0.07,0.018,Cc1cccc(S(=O)(=O)NC(=O)NCCSCCNC(=O)NS(=O)(=O)c2cccc(C)c2)c1,
20.5,10.6,Cc1cccc(S(=O)(=O)NC(=O)NCCS)c1,
0.05,0.019,O=C(NCCCCCNC(=O)NS(=O)(=O)c1cccc(Cl)c1)NS(=O)(=O)c1cccc(Cl)c1,
0.024,0.012,Cc1cccc(S(=O)(=O)NC(=O)NCCCCCCNC(=O)NS(=O)(=O)c2cccc(C)c2)c1,
0.095,0.012,Cc1cccc(S(=O)(=O)NC(=O)NCCC#CCCNC(=O)NS(=O)(=O)c2cccc(C)c2)c1,
0.045,0.017,O=C(NCCCCCCCCNC(=O)NS(=O)(=O)c1cccc(Cl)c1)NS(=O)(=O)c1cccc(Cl)c1,
0.028,0.016,O=C(NC[C@H]1CC[C@H](CNC(=O)NS(=O)(=O)c2cccc(Cl)c2)CC1)NS(=O)(=O)c1cccc(Cl)c1,
> 100,> 100,Cc1cccc(S(=O)(=O)NC(=O)NCCNC(=O)NS(=O)(=O)c2cccc(C)c2)c1,
,0.008,O=C(NCCCCCCNC(=O)NS(=O)(=O)c1cccc(Cl)c1)NS(=O)(=O)c1cccc(Cl)c1,half-life [3]: 1.83 h; pKa [4]: 5.35; logD [5]: -0.93; bioavailability [6]: 108%
0.072,0.022,Cc1cccc(S(=O)(=O)NC(=O)NCCCCCNC(=O)NS(=O)(=O)c2cccc(C)c2)c1,
0.029,0.012,Cc1cccc(S(=O)(=O)NC(=O)NCCSSCCNC(=O)NS(=O)(=O)c2cccc(C)c2)c1,
0.006,0.004,O=C(NCc1ccc(CNC(=O)NS(=O)(=O)c2cccc(Cl)c2)cc1)NS(=O)(=O)c1cccc(Cl)c1,
0.012,0.005,Cc1cccc(S(=O)(=O)NC(=O)NCCCCCCCNC(=O)NS(=O)(=O)c2cccc(C)c2)c1,bioavailability [7]: 100%; half-life [8]: 3 h
> 100,> 100,Cc1cccc(S(=O)(=O)NC(=O)NCCNCCNC(=O)NS(=O)(=O)c2cccc(C)c2)c1,
178,86.8,CCCCNC(=O)NS(=O)(=O)c1cccc(C)c1,

IC50 [1] [µM],IC50 [2] [µM],Compound,other results
196,134,CCCCNC(=O)NS(=O)(=O)c1cccc(Cl)c1,
515,277,CSCCNC(=O)NS(=O)(=O)c1cccc(Cl)c1,
2.75,0.264,O=C(NCCCCNC(=O)NS(=O)(=O)c1cccc(Cl)c1)NS(=O)(=O)c1cccc(Cl)c1,
0.012,0.006,Cc1cccc(S(=O)(=O)NC(=O)NCc2cccc(CNC(=O)NS(=O)(=O)c3cccc(C)c3)c2)c1,
> 100,38.5,Cc1cccc(S(=O)(=O)NC(=O)NCCCNC(=O)NS(=O)(=O)c2cccc(C)c2)c1,
0.827,0.151,Cc1cccc(S(=O)(=O)NC(=O)NCCOCCNC(=O)NS(=O)(=O)c2cccc(C)c2)c1,
> 1000,320,CCCNC(=O)NS(=O)(=O)c1cccc(C)c1,
,0.004,O=C(NCCCCCCCNC(=O)NS(=O)(=O)c1cccc(Cl)c1)NS(=O)(=O)c1cccc(Cl)c1,pKa [4]: 5.12; logD [5]: -0.43
1.6,,Nc1ccc(S(=O)(=O)NC(=O)NCCS)cc1,
690,234,CCCNC(=O)NS(=O)(=O)c1cccc(Cl)c1,
0.035,0.008,Cc1cccc(S(=O)(=O)NC(=O)NCCCCCCCCNC(=O)NS(=O)(=O)c2cccc(C)c2)c1,
0.04,0.014,O=C(NCC/C=C/CCNC(=O)NS(=O)(=O)c1cccc(Cl)c1)NS(=O)(=O)c1cccc(Cl)c1,
3.4,0.542,Cc1cccc(S(=O)(=O)NC(=O)NCCCCNC(=O)NS(=O)(=O)c2cccc(C)c2)c1,
0.003,0.002,Cc1cccc(S(=O)(=O)NC(=O)NCc2ccc(CNC(=O)NS(=O)(=O)c3cccc(C)c3)cc2)c1,
43.8,13.7,O=C(NCCCNCCCNC(=O)NS(=O)(=O)c1cccc(Cl)c1)NS(=O)(=O)c1cccc(Cl)c1,
0.125,0.057,O=C(NCCCOCCCNC(=O)NS(=O)(=O)c1cccc(Cl)c1)NS(=O)(=O)c1cccc(Cl)c1,
